Source: patent US20030103900A1, “Use of disease-associated organisms” (priority 2001, published 2003)

Each molecule was assayed on non-Hodgkins lymphoma (assay: broad spectrum antibiotic cover in a non-Hodgkins lymphoma patient with mixed bacterial pneumonia). Details: given together: Penicillin 1 million units three times a day i.m., chloramphenicol 1.25 g three times a day i.m., flagyl 400 mg three times a day orally; following one week.
Assay type: in vivo, human
Text: If, on the other hand, a disease-associated organism is found within the body of a patient, which organism is classified as beneficial regarding a targeted disease (i.e., the activity of the organism is either causative or synergistic toward the disease), a therapeutic agent which is antagonistic toward such beneficial organism may be administered to the patient for aiding the patient's immune system in fighting against such causative or synergistic organism. Organisms have often been reported to exist in cancer patients both in tumor biopsies and in overt disease, in the treatment of a non-Hodgkins lymphoma patient suffering from mixed bacterial pneumonia, inventor prescribed broad spectrum antibiotic cover-Penicillin 1 million units three times a day, chloramphenicol 1.25 g three times a day, and flagyl 400 mg three times a day; the first two by intramuscular route and the flagyl orally.

| Molecule | change of cancerous lymph nodes |
| --- | --- |
| O=C(N[C@H](CO)[C@H](O)c1ccc([N+](=O)[O-])cc1)C(Cl)Cl [chloramphenicol] | cancerous lymph nodes shrank and softened |
| Cc1ncc([N+](=O)[O-])n1CCO [flagyl] | cancerous lymph nodes shrank and softened |
| Penicillin | cancerous lymph nodes shrank and softened |
